Laboratory results as given in patent publication US5491155A, “Substituted thiadiazoles, compositions containing them and their use as antimicrobial and marine antifouling agents” (The Dow Chemical Company, priority 1994, dated 1996).
Converted amounts (≈) assume the structure as drawn. Where two headings read alike, the source gives them in different places.

Tests used:
Aureobasidium pullulan = assay: MIC in malt yeast agar, Aureobasidium pullulan; type: cell-based, Aureobasidium pullulan (ATCC 16622); settings: Ap; malt yeast agar; 30° C.; 72 hours for fungi; read-out: Minimum Inhibitory Concentration (MIC)
Procedure: (§1) The minimum inhibitory concentration (MIC) for the compounds listed in Table I is determined for bacteria, using nutrient agar, and 7 yeast and fungi, using malt yeast agar. A one percent solution of the test compound is prepared in a mixture of acetone and water.
(§2) Malt yeast agar is prepared by adding 3 g yeast extract and 45 g malt agar per liter of deionized water. The specific agar is dispensed in 30 mL aliquots into 25×200 mm test tubes, capped and autoclaved for 15 minutes at 115° C.
(§3) The test tubes containing the agar are cooled in a water bath until the temperature of the agar is 48° C. Then, an appropriate amount of the one percent solution of the test compound is added (except in the controls where no compound is added) to the respective test tubes so that the final concentrations are 500, 250, 100, 50, 25, 10, 2.5, 1.0 and zero parts per million of the test compound in the agar, thus having a known concentration of test compound dispersed therein. The contents of the test tubes are then transferred to respective petri plates. After drying for 24 hours, the petri plates containing nutrient agar are inoculated with bacteria and those containing malt yeast agar are inoculated with yeast and fungi.
(§4) The inoculation with the yeast and fungi is accomplished as follows. Cultures of yeast and fungi are incubated for seven days on malt yeast agar at 30° C. These cultures are used to prepare suspensions by the following procedure. A suspension of each organism is prepared by adding 10 mL of sterile saline and 10 microliters of octylphenoxy polyethoxy ethanol to the agar slant of yeast or fungi. The sterile saline/octylphenoxy polyethoxy ethanol solution is then agitated with a sterile swab to suspend the microorganism grown on the slant. Each resulting suspension is diluted into sterile saline (1 part suspension: 9 parts sterile saline). Aliquots of these dilutions are placed in individual wells of Steer's Replicator and petri plates inoculated as previously described. The petri plates are incubated at 30° C. and read after 48 hours for yeast and 72 hours for fungi.
(§5) Table II lists the bacteria, yeast and fungi used in the MIC test described above along with their respective American Type Culture Collection (ATCC) identification numbers.
(§6) In Tables III and IV, the MIC values of the compounds described in Table I as compared to the MIC of a standard commercial preservative (with 1-(3-chloroalkyl)-3,5,7-triaza-1-azoniaadamantane chloride as the active agent and referred to in Tables III and IV as "STANDARD I") are set forth for the bacteria organisms and yeast/fungi organisms which are listed in Table II.

Proteus vulgaris = assay: MIC in nutrient agar, Proteus vulgaris; type: cell-based, Proteus vulgaris (ATCC 881); settings: Pv, 48 hours, read-out: Minimum Inhibitory Concentration (MIC)
Procedure: as §1
Nutrient agar is prepared at pH 6.8, representing a neutral medium, and at pH 8.2, representing an alkaline medium. The nutrient agars are prepared by adding 23 g of nutrient agar to one-liter of deionized water. In addition, the alkaline medium is prepared by adjusting a 0.04M solution of N-(tris-(hydroxymethyl)methyl)glycine buffered deionized water with concentrated sodium hydroxide to a pH of 8.5.
as §3
The inoculation with bacteria is accomplished by using the following procedure. Twenty-four hour-cultures of each of the bacteria are prepared by incubating the respective bacteria in tubes containing nutrient broth for 24 hours at 30° C. in a shaker. Dilutions of each of the 24 hour-cultures are made so that nine separate suspensions (one for each of the nine test bacteria) are made, each containing 10^8 colony forming units (CFU) per mL of suspension of a particular bacteria. Aliquots of 0.3 mL of each of the bacterial suspensions are used to fill the individual wells of Steer's Replicator. For each microbial suspension, 0.3 mL was used to fill three wells (i.e., three wells of 0.3 mL each) so that for the nine different bacteria, 27 wells are filled. The Steer's Replicator is then used to inoculate both the neutral and alkaline pH nutrient agar petri plates.
The inoculated petri plates are incubated at 30° C. for 48 hours and then read to determine if the test compound which is incorporated into the agar prevented growth of the respective bacteria.
as §5, §6

Saccharomyces cerevisiae = assay: MIC in malt yeast agar, Saccharomyces cerevisiae; type: cell-based, Saccharomyces cerevisiae (ATCC 4105); settings: Sc, malt yeast agar, 30° C., 48 hours for yeast, read-out: Minimum Inhibitory Concentration (MIC)
Procedure: as §1, §2, §3, §4, §5, §6

marine organisms = assay: Marine antifouling test on coated panels; settings: scale 10 (completely free of marine organism growth) to 0 (completely covered)
Procedure: Test panels are prepared from clear, rigid polyvinyl chloride film that is 0.381×10^-3 m thick and has one textured surface. The test panels are 0.1524 m by 0.1524 m squares that have 0.00635 m holes punched at corners on 0.127 m centers. A 0.102 square template, with a 0.067 m diameter hole at the center, is attached to the center of the textured surface of the test panels.
A candidate marine antifoulant compound (1.0 g) is stirred into a resinous latex binder (9.0 g). A portion of the compound/binder mixture (1.5 g, is added to the center of the test panel and uniformly spread over the circular area inside the template.
Water is added dropwise as needed to properly spread the compound/binder mixture. The template prevents the compound/binder mixture from spreading beyond the uncovered area. […] The template is then removed. The test panel is then allowed to dry for 8 to 12 hours at room temperature.
Two test panels are prepared for each candidate marine antifoulant compound. Two control test panels are also prepared by only treating with the resinous latex binder. One test panel of each candidate marine […] compound is attached over a white background to the topside of an exposure support apparatus. The second test panel is attached over a black background to the underside of the exposure support apparatus. The exposure support apparatus is placed horizontally 0.0254 m under a marine surface with the white background topside facing up.
After being removed from the exposure support apparatus, each test panel is inspected and rated for marine organism growth on both the treated and untreated areas of the test panel. The marine organisms present on the treated and untreated areas are noted. The presence of algae spores and bacterial slime are noted but not included in rating each test panel. The test panels are rated on a scale from 10 (representing completely free of marine organism growth) to 0 (representing completely covered with marine organism growth).
In addition, test panels were prepared using tributyl tin oxide, a known marine antifouling compound.

Row | Compound | MIC (Aureobasidium pullulan) [µg/mL] | MIC (Proteus vulgaris; pH 6.8, 30° C.) [µg/mL] | MIC (Proteus vulgaris; pH 8.2, 30° C.) [µg/mL] | MIC (Saccharomyces cerevisiae) [µg/mL] | Marine Antifouling Rating (marine organisms; 10 Week Test, Bottom Panel) | Marine Antifouling Rating (marine organisms; 10 Week Test, Top Panel) | Marine Antifouling Rating (marine organisms; 20 Week Test, Bottom Panel) | Marine Antifouling Rating (marine organisms; 20 Week Test, Top Panel)
1 | N#CSCSc1nsnc1SCSC#N [Example 4, Bis(thiomethylthiocyanato)-1,2,5-thiadiazole] | < 2.5 | < 10 | < 10 | < 2.5 | 9 | 9 | 5 | 7
2 | N#CSc1nsnc1SC#N [Example 2, Bis(thiocyanato)-1,2,5-thiadiazole] | < 1 | 25 (≈ 125 µM) | 100 (≈ 499 µM) | 5 (≈ 25 µM) | 9 | 9 | 7 | 2
